A melting point compilation (Tetko et al.; mined from patent text by program, amines drawn as free bases though some values may be those of a salt)

melting point	SMILES
45 to 50 °C	CCc1cccc(CNC[C@@H](O)[C@H](Cc2cc(F)cc(F)c2)NC(=O)C2CCC(CS(C)(=O)=O)CC2)c1 (stereo partly drawn)
130 to 132 °C	CC1(C)CCC(C)(C)c2cc(NC(=O)c3ccc(OCCN4CCOCC4)cc3)ccc21
72 to 74 °C	O=C1c2ccccc2C(O)N1CCCO[N+](=O)[O-] (stereo not drawn)
70 to 72 °C	CCC(=O)Cc1nc2ccccc2c(=O)o1
213 to 214 °C	CCC(CC)Sc1cc2c(cc1Cl)N=C(CCl)NS2(=O)=O
101 to 103 °C	Clc1c(Br)cncc1Br
128 to 129 °C	CCOC(=O)c1[nH]c2c(C)ccc(C)c2c1C(=O)OC
173 to 176 °C	CC(C)CC(C(N)=O)N1C(=O)c2ccccc2C1=O (stereo not drawn)
211 to 214 °C	O=C1c2ccccc2C(=O)N1CCCc1cn(C(c2ccccc2)(c2ccccc2)c2ccccc2)cn1
203 to 204 °C	NS(=O)(=O)c1ccc(CCN2CCN(c3ccncc3)CC2)cc1
210 to 211 °C	CC(=O)C1=C(O)c2c(c3ccccc3n2C)S(=O)(=O)N1
153 to 154 °C	CCOc1nn(Cc2ccc(OCc3cn4c(Cl)cccc4n3)cc2)cc1CCC(=O)O
> 300 °C	NC(=O)c1cc(O)c(O)cc1N
104 to 107 °C	CC(C)(CNC(=O)CCCC(=O)O)SN=O
142 °C	N#CN=C(Nc1ccccc1Br)Nc1ccc(C#N)c(Br)c1O
82 to 103 °C	C#CCNC1=NS(=O)(=O)N=C1NCCSCc1nc[nH]c1C
100 to 103 °C	Cc1ccc(N)c(-c2nc(C(F)(F)F)cs2)c1
163 °C	COc1cccc2c1OC(CN1CCC(NC(=O)Nc3ccccc3)CC1)CC2 (stereo not drawn)
166 to 190 °C	OC1CSC(Oc2cncc(-c3ccc(F)cn3)c2)C(O)C1O (stereo not drawn)
64 to 66 °C	CCCCCCCCCCCCCCCCCCOc1cc(C(=O)OC)cc([N+](=O)[O-])c1
158 to 159 °C	CC(=O)SC(C(=O)c1cccc(F)c1)C(C)C(=O)N1CCC[C@H]1C(=O)O (stereo partly drawn)
150 °C	CC(C(=O)O)c1ccc(C(=O)c2ccc3ccccc3c2)cc1 (stereo not drawn)
120 to 121 °C	CCCCCC(=O)NC[C@H](CC(C)C)NC(=O)[C@H]1O[C@@H]1C(=O)OCC
99.5 to 100 °C	COC(=O)CC[C@@H](CF)NC(=O)c1ccccc1
128 to 129 °C	O=C(O)c1cc([N+](=O)[O-])c(F)c(F)c1F
47.6 °C	C=CCCC[C@H]1CC[C@H](c2ccc(C(C)=O)cc2)CC1

The remaining lines, values behind:

SMILES	melting point
CC(C)(C)OC(=O)N(C(=O)OC(C)(C)C)c1c(C#CBr)c(C#N)nn1-c1c(Cl)cc(C(F)(F)F)cc1Cl	130 to 131 °C
Clc1ccc2[nH]cc(C3=CCC4(CC3)OCCO4)c2c1	178 to 181 °C
COc1ccc(C=CC(=O)Oc2cc3c(cc2OC)CC2c4cc(OC)c(OC)cc4CCN2C3)cc1OC (stereo not drawn)	224 to 225 °C
CC(C#CC1CC(Oc2ccc(F)cc2Cl)C1)N(O)C(N)=O (single isomer, unassigned; (+))	160 °C
COc1ccc2c(c1)C(=O)C(Cc1ccccc1)CS2 (stereo not drawn)	66 to 68 °C
Cc1oc(-c2ccccc2)nc1COc1ccc(CON=C(C(=O)O)C(C)C)cc1	128 to 129 °C
CC(C)c1nc2cc(NC(=O)c3c(C(=O)O)cnn3C)ccn2n1	> 250 °C
c1ccc(COc2ccc(NC3=NN(c4ccccc4)CC3)cc2)cc1	187 to 188 °C
O=Cc1cccc(Oc2ccccc2)c1F	75 to 77 °C
C[C@@H](c1ccccc1)N1C[C@H]2CCOC(=O)[C@H]2C1	86 to 87 °C
CC(C)c1c(CO)c(-c2ccc(F)cc2)c2ccccn12	90 to 92 °C
Nc1ccccc1-c1n[nH]c(=S)n1N	191 to 192 °C
CC(C)c1cc(Br)c(C(C)C)cc1S	72 to 75 °C
COc1cc(OCc2ccncc2)ccc1/C=C/c1cc(/C=C/c2cc3ccccc3[nH]2)n[nH]1	124 to 134 °C
O=c1c(Br)cc2cnc(Nc3ccccn3)nc2n1C1CCCC1	273 to 275 °C
CCCc1c(O)c(C(C)=O)cc2ccc(C(=O)OC)nc12	110 to 111 °C
FC(F)c1nc2ccccc2n1-c1nc(Nc2ncccn2)nc(N2CCOCC2)n1	261 to 263 °C
CCCCc1nc2c(N)nc3ccccc3c2n1CCCCCCCCNS(C)(=O)=O	121 to 124 °C
Cc1n[nH]c2ccccc12	110 to 113 °C
CC(C)(C)OC(=O)N=C(c1ccc(C(=O)Nc2ccc(C(=O)NCCC(=O)OCc3ccccc3)cc2)cc1)N(C(=O)OC(C)(C)C)C(=O)OC(C)(C)C	164 to 165 °C
O=c1[nH]c2ncccc2c(=O)n1-c1ccccc1	304 °C
CNc1nc(Nc2ccc(Cl)c(Cl)c2)ncc1NP(C)(C)=O	258 °C
CCNC(=O)c1sc2ccccc2c1[Si](C)(C)C	131 to 134 °C
CC(C)CCCC(C)C1C(O)CC2C3=CC=C4C(C)(C)C(O)CCC4(C)C3CCC21C (stereo not drawn)	171 to 173 °C

SMILES	melting point
c1ccc(CNc2nc(-c3ccco3)nc3ccccc23)cc1	152 to 154 °C
C[C@@H]1C[C@](C)(O)[C@H](C)N1c1ccc(C#N)c(Cl)c1	132 to 133 °C
CN(C)C1Cc2cccc3[nH]c(=S)n(c23)C1 (stereo not drawn)	203 to 205 °C
O=C(Nc1cnc2ccccc2c1)OC1CN2CCC1CC2 (stereo not drawn)	135 to 137 °C
CC1(C)CC(OC(=O)CCCCCCCCC(=O)OC2CC(C)(C)N(OCc3ccccc3)C(C)(C)C2)CC(C)(C)N1OCc1ccccc1	58 to 61 °C
COc1ccc(N2CC(=O)NC(=O)N2)cc1C	69 to 71 °C
O=C(NCCc1c[nH]c2ccc(C(=O)O)cc12)OCc1ccccc1	186 to 188 °C
CC(C)(C)C(=O)C=Cc1cccnc1	68 to 70 °C
Cc1ccc(-c2c(C(=O)NCc3cc(C(F)(F)F)cc(C(F)(F)F)c3)n(CCCCCO)c(=O)c3ncccc23)cc1	136 to 137 °C
Cc1cc(SCC#Cc2ccc(C(F)(F)F)cc2)ccc1OCC(=O)O	130 to 131 °C
Cc1ccccc1OCCCN1CCC(C(O)(c2ccc(F)cc2)c2ccc(F)cc2)CC1	108 to 109 °C
O=[N+]([O-])c1cc(-c2ccoc2)ccc1Nc1cccc(-n2cccc2)c1	129 to 131 °C
COCCO[C@@H]1c2ccn3c(Cl)c(C)nc3c2N(C(C)=O)[C@H](c2ccccc2)[C@H]1OC(=O)C(C)(C)C	145 to 147 °C
Cc1ccc(CCC(=O)NCCCCN2CCN(C(c3ccccc3)c3ccccc3)CC2)cn1	126 to 127 °C
CCOC(=O)c1cnn(-c2ccccn2)c1N	92 to 93 °C
O=[N+]([O-])c1ccc2nc(N3CCNCC3)ccc2c1	153 °C
CC(C)C(=O)c1cn(Cc2c(F)cccc2F)c2sc(-c3ccc([N+](=O)[O-])cc3)c(CBr)c2c1=O	202 to 204 °C
CC1(CN2CCC(=O)CC2)Cn2cc([N+](=O)[O-])nc2O1 (stereo not drawn)	124 to 126 °C
COc1ccc(-c2coc3ccc(C(=O)NN)cc23)cc1	184 to 185 °C
COc1ccc(-c2c[nH]c3c(OC)ccc(OC)c3c2=O)cc1	124 to 125 °C
CC#Cc1cn(C2CC(OC(C)=O)C(COC(C)=O)O2)c(=O)[nH]c1=O (stereo not drawn)	148 to 149 °C
CCc1ncnc(Cl)c1I	56 to 57 °C
CC#Cc1cc(=O)n2nc(SCCCCCC)sc2n1	94 to 97 °C
